According to US9631050B2, “Antimicrobial cationic polycarbonates” (International Business Machines Corporation, priority 2013, dated 2017):

System: mammalian red blood cells
Procedure: HC50 is defined as the concentration (in mg/L) of cationic polymer that causes 50% of mammalian red blood cells to undergo hemolysis. HC50 values of 500 mg/L or higher are desirable.
Fresh rabbit blood cells or rat blood cells were subjected to 25× dilution with phosphate buffered saline (PBS) to obtain an approximate 4% v/v suspension for use in this experiment. Red blood cell suspension (300 microliters) was added to each tube containing an equal volume (300 microliters) of polymer solution in PBS (with final polymer concentrations ranging from 3.9-500 mg/L). The tubes were then incubated at 37° C. for 1 hour before they were centrifuged at 1000×g for 5 min. Aliquots (100 microliters) of supernatant were transferred to each well of a 96-well plate and analyzed for hemoglobin release at 576 nm using a microplate reader (TECAN, Switzerland). Red blood cells suspension incubated with PBS was used as negative control. Absorbance of red blood cells lyzed with 0.1% v/v Triton X-100 was used as the positive control and taken to be 100% hemolytic. Percentage of hemolysis was calculated using the following formula: Hemolysis (%)=[(O.D.576 nm of treated sample−O.D.576 nm of negative control)/(O.D.576 nm of positive control−O.D.576 nm of negative control)]×100. Data are expressed as mean±standard deviations of 4 replicates.

Substance: Butyl imidazole [Example 36]
- HC50: 250 mg/L
